Positions of bridges follow the written chain, without caps; N, C: chain ends. Non-standard residues stand in square brackets, D forms with d. Residues, ends and D or L forms follow the SMILES beside them. Phe(4-NH2) = Nc1ccc(C[C@H](N)C(=O)O)cc1; Arg(Me2s) = CN=C(NC)NCCC[C@H](N)C(=O)O; hArg = N=C(N)NCCCC[C@H](N)C(=O)O; 3Pal = N[C@@H](Cc1cccnc1)C(=O)O
Columns and labels:
Test in all cases: cell-based
[1] = target: hNav1.3 (Homo sapiens, UniProt Q9NY46); conditions: IonWorks Quattro, use-dependent block, hNav1.3; read-out: IWQ Use Nav1.3
[2] = target: hNav1.5 (Homo sapiens, UniProt Q14524); conditions: IonWorks Quattro, use-dependent block, hNav1.5; read-out: IWQ Use Nav1.5
[3] = target: hNav1.7 (Homo sapiens, UniProt Q15858); type: cell-based; conditions: IonWorks Quattro, use-dependent block, hNav1.7; read-out: IWQ Use Nav1.7
hNav1.7, sequence (Q15858 whole entry, looked up): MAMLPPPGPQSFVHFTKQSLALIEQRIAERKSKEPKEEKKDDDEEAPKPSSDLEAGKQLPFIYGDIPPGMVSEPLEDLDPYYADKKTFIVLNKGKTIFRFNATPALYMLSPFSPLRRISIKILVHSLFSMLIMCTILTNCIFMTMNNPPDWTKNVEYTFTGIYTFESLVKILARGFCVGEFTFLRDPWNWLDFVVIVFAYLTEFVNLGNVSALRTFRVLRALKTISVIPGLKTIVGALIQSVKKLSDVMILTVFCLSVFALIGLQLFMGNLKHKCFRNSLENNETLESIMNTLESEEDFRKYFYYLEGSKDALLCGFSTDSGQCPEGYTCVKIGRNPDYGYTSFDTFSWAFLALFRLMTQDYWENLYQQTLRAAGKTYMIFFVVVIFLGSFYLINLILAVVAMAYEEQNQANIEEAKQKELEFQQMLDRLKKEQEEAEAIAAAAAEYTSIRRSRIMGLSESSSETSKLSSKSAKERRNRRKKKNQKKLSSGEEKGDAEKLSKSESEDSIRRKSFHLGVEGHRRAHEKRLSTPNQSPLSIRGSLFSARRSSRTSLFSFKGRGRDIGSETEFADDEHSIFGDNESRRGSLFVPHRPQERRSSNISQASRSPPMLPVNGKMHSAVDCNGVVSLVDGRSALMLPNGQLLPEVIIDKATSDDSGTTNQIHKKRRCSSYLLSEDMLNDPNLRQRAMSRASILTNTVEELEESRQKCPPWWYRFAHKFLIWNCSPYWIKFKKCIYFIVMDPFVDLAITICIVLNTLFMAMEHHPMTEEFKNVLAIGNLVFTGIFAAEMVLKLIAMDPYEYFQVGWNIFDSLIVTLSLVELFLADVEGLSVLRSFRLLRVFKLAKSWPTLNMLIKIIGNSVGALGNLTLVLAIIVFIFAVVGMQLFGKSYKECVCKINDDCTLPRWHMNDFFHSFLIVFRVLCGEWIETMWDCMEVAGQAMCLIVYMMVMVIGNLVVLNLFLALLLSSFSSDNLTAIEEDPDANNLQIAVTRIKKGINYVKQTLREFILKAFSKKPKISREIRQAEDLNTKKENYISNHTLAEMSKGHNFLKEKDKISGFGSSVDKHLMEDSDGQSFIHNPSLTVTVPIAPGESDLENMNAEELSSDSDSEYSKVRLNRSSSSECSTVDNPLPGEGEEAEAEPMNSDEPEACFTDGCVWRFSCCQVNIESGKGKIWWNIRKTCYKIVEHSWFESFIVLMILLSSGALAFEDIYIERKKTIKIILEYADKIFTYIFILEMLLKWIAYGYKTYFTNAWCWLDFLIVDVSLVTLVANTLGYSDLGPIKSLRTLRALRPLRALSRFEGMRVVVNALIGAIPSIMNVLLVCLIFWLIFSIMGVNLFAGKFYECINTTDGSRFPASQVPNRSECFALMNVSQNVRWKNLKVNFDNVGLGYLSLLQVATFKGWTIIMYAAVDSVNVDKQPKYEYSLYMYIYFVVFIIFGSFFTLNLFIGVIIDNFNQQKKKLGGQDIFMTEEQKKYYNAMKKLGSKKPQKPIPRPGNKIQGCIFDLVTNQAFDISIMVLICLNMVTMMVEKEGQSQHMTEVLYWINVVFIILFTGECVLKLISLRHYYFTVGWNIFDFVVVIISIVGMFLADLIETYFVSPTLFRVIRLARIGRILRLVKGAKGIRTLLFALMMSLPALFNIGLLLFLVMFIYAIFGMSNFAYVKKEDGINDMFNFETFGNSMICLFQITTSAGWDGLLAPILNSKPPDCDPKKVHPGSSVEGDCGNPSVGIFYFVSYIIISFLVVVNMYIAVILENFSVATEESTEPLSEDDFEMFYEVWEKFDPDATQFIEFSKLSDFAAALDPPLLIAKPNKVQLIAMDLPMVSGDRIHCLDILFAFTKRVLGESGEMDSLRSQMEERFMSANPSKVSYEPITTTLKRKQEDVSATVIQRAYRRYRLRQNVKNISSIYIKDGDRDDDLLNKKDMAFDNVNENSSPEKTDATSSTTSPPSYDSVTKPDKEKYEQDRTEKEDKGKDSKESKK

hNav1.3, sequence (Q9NY46 whole entry, looked up): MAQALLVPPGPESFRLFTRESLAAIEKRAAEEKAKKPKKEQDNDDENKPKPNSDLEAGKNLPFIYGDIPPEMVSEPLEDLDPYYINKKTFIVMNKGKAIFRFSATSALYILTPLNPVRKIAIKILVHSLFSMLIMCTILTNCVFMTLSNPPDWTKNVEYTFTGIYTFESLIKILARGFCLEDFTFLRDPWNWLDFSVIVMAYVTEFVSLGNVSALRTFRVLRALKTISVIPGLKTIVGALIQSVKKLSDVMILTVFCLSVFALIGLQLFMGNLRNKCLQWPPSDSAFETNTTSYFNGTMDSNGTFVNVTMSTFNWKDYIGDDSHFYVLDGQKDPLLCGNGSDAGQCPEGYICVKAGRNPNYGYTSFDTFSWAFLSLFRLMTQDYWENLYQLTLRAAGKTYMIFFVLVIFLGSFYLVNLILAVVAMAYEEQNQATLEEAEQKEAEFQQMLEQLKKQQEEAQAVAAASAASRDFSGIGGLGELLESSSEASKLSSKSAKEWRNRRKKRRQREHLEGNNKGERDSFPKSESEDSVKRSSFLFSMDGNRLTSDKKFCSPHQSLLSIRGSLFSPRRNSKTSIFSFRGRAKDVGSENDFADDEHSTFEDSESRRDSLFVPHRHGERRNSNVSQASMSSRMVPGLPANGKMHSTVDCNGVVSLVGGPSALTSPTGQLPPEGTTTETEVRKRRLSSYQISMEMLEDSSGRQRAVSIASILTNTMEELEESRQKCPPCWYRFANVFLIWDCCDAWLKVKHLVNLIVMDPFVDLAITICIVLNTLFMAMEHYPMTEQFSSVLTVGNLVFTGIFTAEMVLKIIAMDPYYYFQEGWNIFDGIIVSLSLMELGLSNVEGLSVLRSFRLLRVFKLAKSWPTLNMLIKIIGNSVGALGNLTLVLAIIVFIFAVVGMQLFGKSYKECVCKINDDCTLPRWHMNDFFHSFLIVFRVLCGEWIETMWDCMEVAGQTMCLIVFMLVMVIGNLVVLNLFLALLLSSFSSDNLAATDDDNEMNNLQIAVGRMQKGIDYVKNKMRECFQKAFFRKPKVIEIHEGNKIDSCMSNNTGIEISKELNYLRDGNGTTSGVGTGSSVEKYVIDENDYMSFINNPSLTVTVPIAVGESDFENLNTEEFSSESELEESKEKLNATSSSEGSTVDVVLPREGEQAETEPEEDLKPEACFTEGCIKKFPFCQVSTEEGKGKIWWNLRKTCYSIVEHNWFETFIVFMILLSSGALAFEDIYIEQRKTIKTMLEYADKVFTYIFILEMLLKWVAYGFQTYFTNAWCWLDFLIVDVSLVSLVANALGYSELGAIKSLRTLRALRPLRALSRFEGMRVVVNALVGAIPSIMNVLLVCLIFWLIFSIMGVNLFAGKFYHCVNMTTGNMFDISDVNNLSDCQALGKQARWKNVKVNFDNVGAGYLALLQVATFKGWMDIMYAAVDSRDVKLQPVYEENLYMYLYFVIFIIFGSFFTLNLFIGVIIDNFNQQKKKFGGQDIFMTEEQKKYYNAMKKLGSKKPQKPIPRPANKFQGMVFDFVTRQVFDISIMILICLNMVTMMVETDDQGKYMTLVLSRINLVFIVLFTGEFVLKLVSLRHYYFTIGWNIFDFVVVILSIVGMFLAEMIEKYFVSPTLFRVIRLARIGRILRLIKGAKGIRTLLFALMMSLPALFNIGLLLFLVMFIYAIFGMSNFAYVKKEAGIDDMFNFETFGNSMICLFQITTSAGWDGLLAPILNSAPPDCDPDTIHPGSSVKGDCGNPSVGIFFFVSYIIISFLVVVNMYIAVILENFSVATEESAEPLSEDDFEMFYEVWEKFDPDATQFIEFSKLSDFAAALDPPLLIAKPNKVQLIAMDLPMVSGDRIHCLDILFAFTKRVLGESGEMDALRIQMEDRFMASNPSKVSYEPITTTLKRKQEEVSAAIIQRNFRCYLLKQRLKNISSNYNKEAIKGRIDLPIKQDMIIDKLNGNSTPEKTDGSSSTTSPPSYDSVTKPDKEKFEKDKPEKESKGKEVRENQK

For `CC[C@H](C)[C@@H]1NC(=O)[C@@H]2CSSC[C@@H]3NC(=O)[C@H](C(C)C)NC(=O)[C@H](CC(C)C)NC(=O)[C@H](CC(N)=O)NC(=O)[C@@H]4CCCN4C(=O)[C@H](CCCNC(=N)N)NC(=O)[C@H](CSSC[C@H](NC(=O)[C@@H](N)CC(=O)O)C(=O)N[C@@H](CC(C)C)C(=O)NCC(=O)N[C@@H](C)C(=O)N[C@@H](CCSC)C(=O)N[C@@H](CCCNC(=N)N)C(=O)N[C@@H](CCCCN)C(=O)N2)NC(=O)[C@H](CSSC[C@@H](C(=O)N[C@@H](CCCCN)C(=O)N[C@@H](Cc2ccc(O)cc2)C(=O)N[C@H](C(=O)N[C@@H](Cc2ccccc2)C(N)=O)C(C)C)NC(=O)[C@H](Cc2c[nH]c4ccccc24)NC(=O)[C@H](CCC(N)=O)NC(=O)[C@H](Cc2c[nH]cn2)NC(=O)[C@H]([C@@H](C)O)NC(=O)[C@H](CCCNC(=N)N)NC(=O)[C@H](CO)NC3=O)NC(=O)[C@H](CCCCN)NC(=O)[C@H](CC(=O)O)NC(=O)[C@H](CC(N)=O)NC(=O)[C@H](CC(=O)O)NC(=O)[C@@H]2CCCN2C1=O` [compound 739] (H-DCLGAMRKCIPDNDKCCRPNLVCSRTHQWCKYVF-NH2; disulfide 2-17, 9-23, 16-30), the IC50 [1] was 2.2 µM, the IC50 [2] was 20.5 µM and the IC50 [3] was 0.63 µM.
In the case of `CC[C@H](C)[C@@H]1NC(=O)[C@@H]2CSSC[C@@H]3NC(=O)[C@H](C(C)C)NC(=O)[C@H](CC(C)C)NC(=O)[C@H](CC(N)=O)NC(=O)[C@@H]4CCCN4C(=O)[C@H](CCCNC(=N)N)NC(=O)[C@H](CSSC[C@H](NC(=O)[C@@H](N)CC(=O)O)C(=O)N[C@@H](CC(C)C)C(=O)NCC(=O)N[C@@H](C)C(=O)N[C@@H](CCSC)C(=O)N[C@@H](CCCNC(=N)N)C(=O)N[C@@H](CCCCN)C(=O)N2)NC(=O)[C@H](CSSC[C@@H](C(=O)N[C@@H](CCCCN)C(=O)N[C@@H](Cc2ccc(O)cc2)C(=O)N[C@H](C(=O)N[C@@H](Cc2ccccc2)C(N)=O)C(C)C)NC(=O)[C@H](Cc2c[nH]c4ccccc24)NC(=O)[C@H](Cc2cccnc2)NC(=O)[C@H](Cc2c[nH]cn2)NC(=O)[C@H]([C@@H](C)O)NC(=O)[C@H](CCCNC(=N)N)NC(=O)[C@H](CO)NC3=O)NC(=O)[C@H](CCCCN)NC(=O)[C@H](CC(=O)O)NC(=O)[C@H](CC(N)=O)NC(=O)[C@H](CC(=O)O)NC(=O)[C@@H]2CCCN2C1=O` [compound 740] (H-DCLGAMRKCIPDNDKCCRPNLVCSRTH[3Pal]WCKYVF-NH2; disulfide 2-17, 9-23, 16-30), the IC50 [1] is reported as > 5 µM, the IC50 [2] is reported as 31.1 µM and the IC50 [3] is reported as 1.5 µM.
Molecule `CC[C@H](C)[C@@H]1NC(=O)[C@@H]2CSSC[C@@H]3NC(=O)[C@H](C(C)C)NC(=O)[C@H](CC(C)C)NC(=O)[C@H](CC(N)=O)NC(=O)[C@@H]4CCCN4C(=O)[C@H](CCCNC(=N)N)NC(=O)[C@H](CSSC[C@H](NC(=O)[C@@H](N)CC(=O)O)C(=O)N[C@@H](CC(C)C)C(=O)NCC(=O)N[C@@H](C)C(=O)N[C@@H](CCSC)C(=O)N[C@@H](CCCNC(=N)N)C(=O)N[C@@H](CCCCN)C(=O)N2)NC(=O)[C@H](CSSC[C@@H](C(=O)N[C@@H](CCCCN)C(=O)N[C@@H](Cc2ccc(O)cc2)C(=O)N[C@H](C(=O)N[C@@H](Cc2ccccc2)C(N)=O)C(C)C)NC(=O)[C@H](Cc2c[nH]c4ccccc24)NC(=O)[C@H](Cc2ccc(N)cc2)NC(=O)[C@H](Cc2c[nH]cn2)NC(=O)[C@H]([C@@H](C)O)NC(=O)[C@H](CCCNC(=N)N)NC(=O)[C@H](CO)NC3=O)NC(=O)[C@H](CCCCN)NC(=O)[C@H](CC(=O)O)NC(=O)[C@H](CC(N)=O)NC(=O)[C@H](CC(=O)O)NC(=O)[C@@H]2CCCN2C1=O` [compound 741] (H-DCLGAMRKCIPDNDKCCRPNLVCSRTH[Phe(4-NH2)]WCKYVF-NH2; disulfide 2-17, 9-23, 16-30) has an IC50 [1] of 2.3 µM, an IC50 [2] of 24.4 µM and an IC50 [3] of 1.1 µM.
`CC[C@H](C)[C@@H]1NC(=O)[C@@H]2CSSC[C@@H]3NC(=O)[C@H](C(C)C)NC(=O)[C@H](CC(C)C)NC(=O)[C@H](CC(N)=O)NC(=O)[C@@H]4CCCN4C(=O)[C@H](CCCNC(=N)N)NC(=O)[C@H](CSSC[C@H](NC(=O)[C@@H](N)CC(=O)O)C(=O)N[C@@H](CC(C)C)C(=O)NCC(=O)N[C@@H](C)C(=O)N[C@@H](CCSC)C(=O)N[C@@H](CCCNC(=N)N)C(=O)N[C@@H](CCCCN)C(=O)N2)NC(=O)[C@H](CSSC[C@@H](C(=O)N[C@@H](CCCCN)C(=O)N[C@@H](Cc2ccc(O)cc2)C(=O)N[C@H](C(=O)N[C@@H](Cc2ccccc2)C(N)=O)C(C)C)NC(=O)[C@H](Cc2c[nH]c4ccccc24)NC(=O)[C@H](CCCCNC(C)=O)NC(=O)[C@H](Cc2c[nH]cn2)NC(=O)[C@H]([C@@H](C)O)NC(=O)[C@H](CCCNC(=N)N)NC(=O)[C@H](CO)NC3=O)NC(=O)[C@H](CCCCN)NC(=O)[C@H](CC(=O)O)NC(=O)[C@H](CC(N)=O)NC(=O)[C@H](CC(=O)O)NC(=O)[C@@H]2CCCN2C1=O` [compound 742] (H-DCLGAMRKCIPDNDKCCRPNLVCSRTHK(Ac)WCKYVF-NH2; disulfide 2-17, 9-23, 16-30) was tested, and the IC50 [1] was 2.5 µM, the IC50 [2] was 22.7 µM and the IC50 [3] was 1.1 µM.
Work on `CC[C@H](C)[C@@H]1NC(=O)[C@@H]2CSSC[C@@H]3NC(=O)[C@H](C(C)C)NC(=O)[C@H](CC(C)C)NC(=O)[C@H](CC(N)=O)NC(=O)[C@@H]4CCCN4C(=O)[C@H](CCCNC(=N)N)NC(=O)[C@H](CSSC[C@H](NC(=O)[C@@H](N)CC(=O)O)C(=O)N[C@@H](CC(C)C)C(=O)NCC(=O)N[C@@H](C)C(=O)N[C@@H](CCSC)C(=O)N[C@@H](CCCNC(=N)N)C(=O)N[C@@H](CCCCN)C(=O)N2)NC(=O)[C@H](CSSC[C@@H](C(=O)N[C@@H](CCCCN)C(=O)N[C@@H](Cc2ccc(O)cc2)C(=O)N[C@H](C(=O)N[C@@H](Cc2ccccc2)C(N)=O)C(C)C)NC(=O)[C@H](Cc2c[nH]c4ccccc24)NC(=O)[C@H](CCCNC(=NC)NC)NC(=O)[C@H](Cc2c[nH]cn2)NC(=O)[C@H]([C@@H](C)O)NC(=O)[C@H](CCCNC(=N)N)NC(=O)[C@H](CO)NC3=O)NC(=O)[C@H](CCCCN)NC(=O)[C@H](CC(=O)O)NC(=O)[C@H](CC(N)=O)NC(=O)[C@H](CC(=O)O)NC(=O)[C@@H]2CCCN2C1=O` [compound 743] (H-DCLGAMRKCIPDNDKCCRPNLVCSRTH[Arg(Me2s)]WCKYVF-NH2; disulfide 2-17, 9-23, 16-30) yielded an IC50 [1] of 1.1 µM, an IC50 [2] of 26.5 µM and an IC50 [3] of 0.22 µM.
`CC[C@H](C)[C@@H]1NC(=O)[C@@H]2CSSC[C@@H]3NC(=O)[C@H](C(C)C)NC(=O)[C@H](CC(C)C)NC(=O)[C@H](CC(N)=O)NC(=O)[C@@H]4CCCN4C(=O)[C@H](CCCNC(=N)N)NC(=O)[C@H](CSSC[C@H](NC(=O)[C@@H](N)CC(=O)O)C(=O)N[C@@H](CC(C)C)C(=O)NCC(=O)N[C@@H](C)C(=O)N[C@@H](CCSC)C(=O)N[C@@H](CCCNC(=N)N)C(=O)N[C@@H](CCCCN)C(=O)N2)NC(=O)[C@H](CSSC[C@@H](C(=O)N[C@@H](CCCCN)C(=O)N[C@@H](Cc2ccc(O)cc2)C(=O)N[C@H](C(=O)N[C@@H](Cc2ccccc2)C(N)=O)C(C)C)NC(=O)[C@H](Cc2c[nH]c4ccccc24)NC(=O)[C@H](CCCCNC(=N)N)NC(=O)[C@H](Cc2c[nH]cn2)NC(=O)[C@H]([C@@H](C)O)NC(=O)[C@H](CCCNC(=N)N)NC(=O)[C@H](CO)NC3=O)NC(=O)[C@H](CCCCN)NC(=O)[C@H](CC(=O)O)NC(=O)[C@H](CC(N)=O)NC(=O)[C@H](CC(=O)O)NC(=O)[C@@H]2CCCN2C1=O` [compound 744] (H-DCLGAMRKCIPDNDKCCRPNLVCSRTH[hArg]WCKYVF-NH2; disulfide 2-17, 9-23, 16-30) gave an IC50 [1] of 0.82 µM, an IC50 [2] of 39.7 µM and an IC50 [3] of 0.47 µM.

— US9340590B2 (priority 2011, dated 2016)
